Test system: Plasmodium berghei
Experiment: Luciferase/luciferin-expressing antifolate-resistant parasites were used to infect a culture of HepG2 cells that were pre-incubated with compounds. Infected hepatocytes emit light due to the luciferase reaction. Assay results are presented as the percent inhibition of light emission compared to control. […]
Format: functional
Details: sporozoite; for IC90: read-out: LUCIFERASE INFECTION ASSAY - IC90

SMILES | IC90 | further results
CCn1nc(C)cc1-c1nnc(Sc2ncc([N+](=O)[O-])s2)n1C | 8.02 µM | IC50 (FFLUC_HILL_SLOPE 4.24, FFLUC_R_SQUARED 0.134, HEPG2TOX_HILL_SLOPE 11.7, HEPG2TOX_R_SQUARED 0.968, PBLUC_HILL_SLOPE 3.63, PBLUC_R_SQUARED 0.242, read-out: LUCIFERASE INFECTION ASSAY - IC50): 4.38 µM
O=C1NC(c2ccccc2)=C(c2nc3ccccc3s2)C(c2cccs2)N1 (stereo unspecified) | > 10 µM | IC50 (FFLUC_HILL_SLOPE 4.26, FFLUC_R_SQUARED 0.397, PBLUC_HILL_SLOPE 0.406, PBLUC_R_SQUARED 0.487, read-out: LUCIFERASE INFECTION ASSAY - IC50): 3.85 µM
Cc1ccc2c(CSc3nc(N)c(C#N)cc3C#N)cc(=O)oc2c1C | 2.94 µM | IC50 (FFLUC_HILL_SLOPE 4.09, FFLUC_R_SQUARED 0.386, HEPG2TOX_HILL_SLOPE 1.27, HEPG2TOX_R_SQUARED 0.917, PBLUC_HILL_SLOPE 1.89, PBLUC_R_SQUARED 0.826, read-out: LUCIFERASE INFECTION ASSAY - IC50): 0.918 µM
CC(=O)Nc1ccc(/C=C2\COc3c(Cl)cc(Cl)cc3C2=O)cc1 | > 10 µM | IC50 (FFLUC_HILL_SLOPE 4.35, FFLUC_R_SQUARED 0.359, read-out: LUCIFERASE INFECTION ASSAY - IC50): > 10 µM
C=CCN(c1ccccc1)S(=O)(=O)c1cccc(C(=O)Nc2ccc(CCCC)cc2)c1 | > 10 µM | IC50 (FFLUC_HILL_SLOPE 3.89, FFLUC_R_SQUARED 0.431, PBLUC_HILL_SLOPE 2.64, PBLUC_R_SQUARED 0.773, read-out: LUCIFERASE INFECTION ASSAY - IC50): 5.84 µM
Cc1cc(NC(=O)C(Nc2ccc(N3CCCC3)c(C)c2)c2ccccc2)no1 (stereo unspecified) | > 10 µM | IC50 (FFLUC_HILL_SLOPE 3.98, FFLUC_R_SQUARED 0.653, PBLUC_HILL_SLOPE 2, PBLUC_R_SQUARED 0.333, read-out: LUCIFERASE INFECTION ASSAY - IC50): > 10 µM
Cc1cccc(C)c1NC(=O)N1[C@@H]2CC[C@@H](C2)[C@H]1c1nc2c(OCCC3CCCCC3)cccc2[nH]1 | > 10 µM | IC50 (FFLUC_HILL_SLOPE 3.83, FFLUC_R_SQUARED 0.822, PBLUC_HILL_SLOPE 12.1, PBLUC_R_SQUARED 0.296, read-out: LUCIFERASE INFECTION ASSAY - IC50): 9.48 µM
Cc1onc(-c2ccc(Cl)cc2)c1-c1ccnc(SCC(=O)Nc2ccc(Cl)cc2)n1 | > 7 µM | IC50 (FFLUC_HILL_SLOPE 3.87, FFLUC_R_SQUARED 0.391, HEPG2TOX_HILL_SLOPE 3.01, HEPG2TOX_R_SQUARED 0.647, PBLUC_HILL_SLOPE 15.9, PBLUC_R_SQUARED 0.148, read-out: LUCIFERASE INFECTION ASSAY - IC50): 6.77 µM
Cc1cc(CN(C)CC(=O)Nc2sc3c(c2C(=O)Nc2ccc(Cl)cc2)CCCC3)no1 | > 10 µM | IC50 (FFLUC_HILL_SLOPE 4.26, FFLUC_R_SQUARED 0.612, PBLUC_HILL_SLOPE 24.8, PBLUC_R_SQUARED 0.242, read-out: LUCIFERASE INFECTION ASSAY - IC50): 9.19 µM
CN(C)c1ccc(C(=O)Nc2cnc3ccccc3c2)cc1 | > 10 µM | IC50 (FFLUC_HILL_SLOPE 4.08, FFLUC_R_SQUARED 0.429, HEPG2TOX_HILL_SLOPE 2.09, HEPG2TOX_R_SQUARED 0.742, PBLUC_HILL_SLOPE 0.628, PBLUC_R_SQUARED 0.448, read-out: LUCIFERASE INFECTION ASSAY - IC50): 0.554 µM
Cc1ccc(C2=NN=C/C2=N\Nc2cc(Cl)cc(Cl)c2)cc1 | 3.57 µM | IC50 (FFLUC_HILL_SLOPE 4.14, FFLUC_R_SQUARED 0.778, HEPG2TOX_HILL_SLOPE 3.13, HEPG2TOX_R_SQUARED 0.962, PBLUC_HILL_SLOPE 34.3, PBLUC_R_SQUARED 0.21, read-out: LUCIFERASE INFECTION ASSAY - IC50): 3.34 µM
O=C(Nc1ccc(Oc2cc(C(F)(F)F)cc(C(F)(F)F)c2)cc1)Nc1ccc(OC(F)(F)F)cc1 | 0.304 µM | IC50 (FFLUC_HILL_SLOPE 4.18, FFLUC_R_SQUARED 0.0377, HEPG2TOX_HILL_SLOPE 3.88, HEPG2TOX_R_SQUARED 0.972, PBLUC_HILL_SLOPE 90.6, PBLUC_R_SQUARED 0.773, read-out: LUCIFERASE INFECTION ASSAY - IC50): 0.297 µM
Oc1c(C(Nc2ccccn2)c2ccsc2)cc(Cl)c2cccnc12 (stereo unspecified) | > 8.97 µM | IC50 (FFLUC_HILL_SLOPE 4.25, FFLUC_R_SQUARED 0.273, HEPG2TOX_HILL_SLOPE 7.18, HEPG2TOX_R_SQUARED 0.784, PBLUC_HILL_SLOPE 2.69, PBLUC_R_SQUARED 0.266, read-out: LUCIFERASE INFECTION ASSAY - IC50): 4.02 µM
CCn1cc(C(=O)OCC(=O)N2N=C3/C(=C/c4ccccc4)CCCC3C2c2ccccc2)c(=O)c2ccc(C)nc21 (stereo unspecified) | 9.47 µM | IC50 (FFLUC_HILL_SLOPE 4.43, FFLUC_R_SQUARED 0.284, HEPG2TOX_HILL_SLOPE 6.55, HEPG2TOX_R_SQUARED 0.133, PBLUC_HILL_SLOPE 3.84, PBLUC_R_SQUARED 0.345, read-out: LUCIFERASE INFECTION ASSAY - IC50): 5.34 µM
COc1ccc(OC)c(-c2csc(NC(=O)c3c(C)nc(C(C)C)nc3SC)n2)c1 | > 10 µM | IC50 (FFLUC_HILL_SLOPE 4.18, FFLUC_R_SQUARED 0.209, HEPG2TOX_HILL_SLOPE 6.05, HEPG2TOX_R_SQUARED 0.136, PBLUC_HILL_SLOPE 1.9, PBLUC_R_SQUARED 0.115, read-out: LUCIFERASE INFECTION ASSAY - IC50): > 10 µM
CC(C)c1ccc(S(=O)(=O)c2ccc(NNC(=O)c3ccccc3OCc3ccc(Cl)cc3)cc2)cc1 | > 10 µM | IC50 (FFLUC_HILL_SLOPE 4.22, FFLUC_R_SQUARED 0.402, PBLUC_HILL_SLOPE 10.9, PBLUC_R_SQUARED 0.175, read-out: LUCIFERASE INFECTION ASSAY - IC50): 8.49 µM
O=C(Nc1ccc(SC(F)(F)F)cc1)Nc1ccc(Oc2ccc(Cl)cc2Cl)nc1 | 5.98 µM | IC50 (FFLUC_HILL_SLOPE 4.22, FFLUC_R_SQUARED 0.441, HEPG2TOX_HILL_SLOPE 15.8, HEPG2TOX_R_SQUARED 0.933, PBLUC_HILL_SLOPE 1.66, PBLUC_R_SQUARED 0.482, read-out: LUCIFERASE INFECTION ASSAY - IC50): 1.59 µM
Oc1c(C(c2ccc(Cl)cc2)c2cc(Cl)c3cccnc3c2O)cc(Cl)c2cccnc12 | 2.32 µM | IC50 (FFLUC_HILL_SLOPE 4.28, FFLUC_R_SQUARED 0.979, HEPG2TOX_HILL_SLOPE 0.496, HEPG2TOX_R_SQUARED 0.799, PBLUC_HILL_SLOPE 1.82, PBLUC_R_SQUARED 0.848, read-out: LUCIFERASE INFECTION ASSAY - IC50): 0.693 µM
CCN(CC)c1ccc(/C=C2\CCc3cnn(-c4nc(-c5ccccc5)cs4)c32)cc1 | > 10 µM | IC50 (FFLUC_HILL_SLOPE 3.85, FFLUC_R_SQUARED 0.639, read-out: LUCIFERASE INFECTION ASSAY - IC50): > 10 µM
CN(C)c1cccc(-c2cnc3sc(NCc4ccc(F)cc4)nn23)c1 | > 8.98 µM | IC50 (FFLUC_HILL_SLOPE 4.01, FFLUC_R_SQUARED 0.615, PBLUC_HILL_SLOPE 7.46, PBLUC_R_SQUARED 0.677, read-out: LUCIFERASE INFECTION ASSAY - IC50): 7.83 µM
Cc1ccc(C2=NN(C(=O)c3ccccc3)C(c3ccccc3O)C2)cc1 (stereo unspecified) | 8.37 µM | IC50 (FFLUC_HILL_SLOPE 4.22, FFLUC_R_SQUARED 0.285, HEPG2TOX_HILL_SLOPE 3.02, HEPG2TOX_R_SQUARED 0.969, PBLUC_HILL_SLOPE 1.84, PBLUC_R_SQUARED 0.813, read-out: LUCIFERASE INFECTION ASSAY - IC50): 2.54 µM
CC(C)NC(=O)N1CCCC(C(=O)Nc2nc3ccccc3[nH]2)C1 (stereo unspecified) | 4 µM | IC50 (FFLUC_HILL_SLOPE 4.02, FFLUC_R_SQUARED 0.256, PBLUC_HILL_SLOPE 1.51, PBLUC_R_SQUARED 0.42, read-out: LUCIFERASE INFECTION ASSAY - IC50): 0.935 µM
NC(=NNC(=S)Nc1ccc(Cl)cc1)c1ccccn1 | > 10.8 µM | IC50 (FFLUC_HILL_SLOPE 4.43, FFLUC_R_SQUARED 0.823, PBLUC_HILL_SLOPE 0.754, PBLUC_R_SQUARED 0.703, read-out: LUCIFERASE INFECTION ASSAY - IC50): 1.71 µM
Cc1ccc(C(C#N)c2ccc(NN)nn2)cc1 (stereo unspecified) | > 13.8 µM | IC50 (FFLUC_HILL_SLOPE 3.94, FFLUC_R_SQUARED 0.836, read-out: LUCIFERASE INFECTION ASSAY - IC50): > 13.8 µM
O=C1C(c2ccccc2)=C(Nc2cc(C(F)(F)F)cc(C(F)(F)F)c2)c2ccccc21 | 0.879 µM | IC50 (FFLUC_HILL_SLOPE 4.26, FFLUC_R_SQUARED 0.731, HEPG2TOX_HILL_SLOPE 18.3, HEPG2TOX_R_SQUARED 0.933, PBLUC_HILL_SLOPE 2.24, PBLUC_R_SQUARED 0.855, read-out: LUCIFERASE INFECTION ASSAY - IC50): 0.329 µM
CCc1cccc(CC)c1N(C(C)=O)c1nc(/C=C/C(=O)c2cc3ccccc3o2)cs1 | 6.49 µM | IC50 (FFLUC_HILL_SLOPE 3.93, FFLUC_R_SQUARED 0.771, PBLUC_HILL_SLOPE 5.3, PBLUC_R_SQUARED 0.865, read-out: LUCIFERASE INFECTION ASSAY - IC50): 4.29 µM
N#Cc1nc(-c2ccccc2)nc2[nH]c(-c3ccccc3)c(C#N)c12 | 9.81 µM | IC50 (FFLUC_HILL_SLOPE 4.02, FFLUC_R_SQUARED 0.58, HEPG2TOX_HILL_SLOPE 1.18, HEPG2TOX_R_SQUARED 0.976, PBLUC_HILL_SLOPE 16.6, PBLUC_R_SQUARED 0.228, read-out: LUCIFERASE INFECTION ASSAY - IC50): 8.59 µM
C=CCNc1sc(C(=O)/C(C#N)=C2\Nc3ccccc3S2)c(N)c1C(=O)Nc1ccc(Cl)cc1 | 4.13 µM | IC50 (FFLUC_HILL_SLOPE 4, FFLUC_R_SQUARED 0.164, HEPG2TOX_HILL_SLOPE 6.65, HEPG2TOX_R_SQUARED 0.57, PBLUC_HILL_SLOPE 11, PBLUC_R_SQUARED 0.696, read-out: LUCIFERASE INFECTION ASSAY - IC50): 3.38 µM

Reference: ChEMBL document CHEMBL4483862, “Open-source discovery of chemical leads for next-generation chemoprotective antimalarials” (2018)
